Molecular target: PKCd (Homo sapiens, UniProt Q05655)
Test: Kinase panel 33P-ATP filter assay, PKCd
Format: biochemical
Details: HCl salt tested; ATP Conc. 10 μM (Km); read-out: Compound IC50 (nM) PKCd
Method: The HCl salts of S enantiomer and the R enantiomer of compound A were tested against a panel of kinases.
Compounds were received as powder and resuspended to 10 mM DMSO stock. Compounds were tested in 10-dose IC50 mode with a 3-fold serial dilution starting at 10 μM. Control compound, staurosporine, was tested in 10-dose IC50 mode with 4-fold serial dilution starting at 20 μM.
Reaction Conditions: Buffer Conditions: 20 mM HEPES ((4-(2-hydroxyethyl)-1-piperazineethanesulfonic acid; pH 7.5), 10 mM MgCl2, 1 mM EGTA (Ethyleneglycol-bis(p-aminoethyl)-N,N,N′,N′-tetraacetic Acid), 0.01% Brij35, 0.02 mg/ml BSA (Bovine serum albumin), 0.1 mM Na3VO4, 2 mM DTT (Dithiothreitol), 1% DMSO. Reaction Procedure: 1. Prepare indicated substrate in freshly prepared reaction buffer. 2. Deliver required cofactors to the substrate solution above. 3. Deliver indicated kinase into the substrate solution and mix gently. 4. Deliver compounds in DMSO into the kinase reaction mixture utilizing acoustic technology (Echo550). 5. Deliver ^33P-ATP (specific activity 0.01 μCi/μl final) into the reaction mixture to initiate the reaction. 6. Incubate kinase reaction for 120 minutes at room temperature. 7. […] Data Analysis: Kinase activity data were expressed as the percent remaining kinase activity in test samples compared to vehicle (dimethyl sulfoxide) reactions. […]

PKCd, sequence (Q05655 whole entry, species assumed): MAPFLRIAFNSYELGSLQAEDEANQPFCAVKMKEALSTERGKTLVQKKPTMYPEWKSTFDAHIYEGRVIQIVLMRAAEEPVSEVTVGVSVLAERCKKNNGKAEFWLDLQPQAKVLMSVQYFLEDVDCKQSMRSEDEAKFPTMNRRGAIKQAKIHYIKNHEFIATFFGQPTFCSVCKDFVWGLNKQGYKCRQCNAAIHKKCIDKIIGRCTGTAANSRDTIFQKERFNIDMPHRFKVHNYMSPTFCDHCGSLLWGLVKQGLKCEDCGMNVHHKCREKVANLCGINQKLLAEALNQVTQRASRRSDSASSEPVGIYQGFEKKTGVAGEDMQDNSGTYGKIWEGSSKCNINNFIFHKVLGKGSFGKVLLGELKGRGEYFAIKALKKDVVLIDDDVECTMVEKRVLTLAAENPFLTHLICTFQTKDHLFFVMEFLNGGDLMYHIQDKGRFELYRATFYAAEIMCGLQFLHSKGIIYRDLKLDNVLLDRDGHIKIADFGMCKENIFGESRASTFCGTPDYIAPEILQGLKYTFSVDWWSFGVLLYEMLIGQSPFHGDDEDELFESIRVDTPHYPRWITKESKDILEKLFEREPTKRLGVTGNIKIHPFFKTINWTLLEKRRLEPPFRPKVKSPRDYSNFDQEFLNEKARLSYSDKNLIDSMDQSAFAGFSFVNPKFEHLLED

| IC50 [nM] | Structure (SMILES) |
| --- | --- |
| < 0.5 | NCc1ccc(C(=O)Nc2ccncc2F)cc1-c1cccc(C(=O)Nc2ccc(SC[C@@H]3CCOC3=O)cc2)c1 [R-enantiomer] |
| 0.9 | NCc1ccc(C(=O)Nc2ccncc2F)cc1-c1cccc(C(=O)Nc2ccc(SC[C@H]3CCOC3=O)cc2)c1 [S-enantiomer] |

— patent US20260078108A1, “SOLID FORMS OF A ROCK INHIBITOR” (REDX PHARMA PLC, priority 2022, published 2026)
